Data taken from patent publication US12077503B2, “Substituted cyclic amides and their use as herbicides” (FMC CORPORATION, priority 2015, dated 2024).

How the values were obtained:
Assay type in all cases: in vivo
[1] = tested on: corn (Zea mays); assay: Test G Post-Emergence Protocol; settings: Zea mays, post-emergence, 312 h; for plant injury at 15.625 g/ha: 15.625 g ai/ha, evaluated after 13 days (100=total damage to plant; 0=no damage to plant), read-out: Corn damage rating; for plant injury at 62.5 g/ha: 62.5 g ai/ha, read-out: Corn damage rating (100=total damage to plant; 0=no damage to plant); for plant injury at 62.5 g/ha / plant injury at 250 g/ha: evaluated after 13 days; for plant injury at 250 g/ha: 250 g ai/ha, read-out: damage to plant, Corn (100=total damage to plant; 0=no damage to plant)
How it was run: (§1)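 Damage was rated 13 days after treatment from 0 (none) to 100 (plant killed). Compound was applied as a spray at 15.625, 62.5 or 250 g/ha in 50:50 acetone/water containing 0.5% Tween 20, onto 8-day-old potted plants kept in a glasshouse (24/16 °C, 14 h light, 65% humidity).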

[2] = tested on: giant foxtail (Setaria faberi); assay: Test G Post-Emergence Protocol; settings: Setaria faberi, post-emergence, 312 h; for pest or weed control at 15.625 g/ha: 15.625 g ai/ha, evaluated after 13 days (100=total damage to plant; 0=no damage to plant), read-out: Foxtail, Giant damage rating; for pest or weed control at 62.5 g/ha: 62.5 g ai/ha, read-out: Foxtail, Giant damage rating (100=total damage to plant; 0=no damage to plant); for pest or weed control at 62.5 g/ha / pest or weed control at 250 g/ha: evaluated after 13 days; for pest or weed control at 250 g/ha: 250 g ai/ha, read-out: damage to plant, Foxtail, Giant (100=total damage to plant; 0=no damage to plant)
How it was run: as §1

[3] = tested on: ivy-leaved morning glory (Ipomoea hederacea); assay: Test G Post-Emergence Protocol; settings: Ipomoea, post-emergence, 312 h; for pest or weed control at 15.625 g/ha: 15.625 g ai/ha, evaluated after 13 days (100=total damage to plant; 0=no damage to plant), read-out: Morningglory, Ivy-leaved damage rating; for pest or weed control at 62.5 g/ha: 62.5 g ai/ha, read-out: Morningglory, Ivy-leaved damage rating (100=total damage to plant; 0=no damage to plant); for pest or weed control at 62.5 g/ha / pest or weed control at 250 g/ha: evaluated after 13 days; for pest or weed control at 250 g/ha: 250 g ai/ha, read-out: damage to plant, Morningglory, Ivy-leaved (100=total damage to plant; 0=no damage to plant)
How it was run: as §1

[4] = tested on: barnyardgrass (Echinochloa crus-galli); assay: Test G Post-Emergence Protocol; settings: Echinochloa crus-galli, post-emergence, 312 h; for pest or weed control at 15.625 g/ha: 15.625 g ai/ha, evaluated after 13 days (100=total damage to plant; 0=no damage to plant), read-out: Barnyardgrass damage rating; for pest or weed control at 62.5 g/ha: 62.5 g ai/ha, read-out: Barnyardgrass damage rating (100=total damage to plant; 0=no damage to plant); for pest or weed control at 62.5 g/ha / pest or weed control at 250 g/ha: evaluated after 13 days; for pest or weed control at 250 g/ha: 250 g ai/ha, read-out: damage to plant, Barnyardgrass (100=total damage to plant; 0=no damage to plant)
How it was run: as §1

[5] = tested on: redroot pigweed (Amaranthus retroflexus); assay: Test G Post-Emergence Protocol; settings: Amaranthus retroflexus, post-emergence, 312 h; for pest or weed control at 15.625 g/ha: 15.625 g ai/ha, evaluated after 13 days (100=total damage to plant; 0=no damage to plant), read-out: Pigweed, Redroot damage rating; for pest or weed control at 62.5 g/ha: 62.5 g ai/ha, read-out: Pigweed, Redroot damage rating (100=total damage to plant; 0=no damage to plant); for pest or weed control at 62.5 g/ha / pest or weed control at 250 g/ha: evaluated after 13 days; for pest or weed control at 250 g/ha: 250 g ai/ha, read-out: damage to plant, Pigweed, Redroot (100=total damage to plant; 0=no damage to plant)
How it was run: as §1

[6] = tested on: velvetleaf (Abutilon theophrasti); assay: Test G Post-Emergence Protocol; settings: Abutilon theophrasti, post-emergence, 312 h; for pest or weed control at 15.625 g/ha: 15.625 g ai/ha, evaluated after 13 days (100=total damage to plant; 0=no damage to plant), read-out: Velvetleaf damage rating; for pest or weed control at 62.5 g/ha: 62.5 g ai/ha, read-out: Velvetleaf damage rating (100=total damage to plant; 0=no damage to plant); for pest or weed control at 62.5 g/ha / pest or weed control at 250 g/ha: evaluated after 13 days; for pest or weed control at 250 g/ha: 250 g ai/ha, read-out: damage to plant, Velvetleaf (100=total damage to plant; 0=no damage to plant)
How it was run: as §1

[7] = tested on: corn (Zea mays); assay: Test G Pre-Emergence Protocol; settings: Zea mays, pre-emergence, 312 h, evaluated after 13 days; for plant injury at 15.625 g/ha: 15.625 g ai/ha; for plant injury at 15.625 g/ha / plant injury at 250 g/ha: read-out: Corn damage rating (100=total damage to plant; 0=no damage to plant); for plant injury at 62.5 g/ha: 62.5 g ai/ha, 100=total damage to plant, 0=no damage to plant, read-out: plant damage rating, Corn; for plant injury at 250 g/ha: 250 g ai/ha
How it was run: (§2)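 Test compound in 0.5% Tween 20 acetone/water (50:50) was applied at three rates (15.625, 62.5, 250 g/ha) to soil sown one day earlier. After 13 days plants were scored for injury, where 0 means unaffected and 100 means completely damaged.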

[8] = tested on: giant foxtail (Setaria faberi); assay: Test G Pre-Emergence Protocol; settings: Setaria faberi, pre-emergence, 312 h, evaluated after 13 days; for pest or weed control at 15.625 g/ha: 15.625 g ai/ha; for pest or weed control at 15.625 g/ha / pest or weed control at 250 g/ha: read-out: Foxtail, Giant damage rating (100=total damage to plant; 0=no damage to plant); for pest or weed control at 62.5 g/ha: 62.5 g ai/ha, 100=total damage to plant, 0=no damage to plant, read-out: plant damage rating, Foxtail, Giant; for pest or weed control at 250 g/ha: 250 g ai/ha
How it was run: as §2

[9] = tested on: ivy-leaved morning glory (Ipomoea hederacea); assay: Test G Pre-Emergence Protocol; settings: Ipomoea, pre-emergence, 312 h, evaluated after 13 days; for pest or weed control at 15.625 g/ha: 15.625 g ai/ha, read-out: Morning-glory, Ivy-leaved damage rating (100=total damage to plant; 0=no damage to plant); for pest or weed control at 62.5 g/ha: 62.5 g ai/ha, 100=total damage to plant, 0=no damage to plant, read-out: plant damage rating, Morningglory, Ivy-leaved; for pest or weed control at 250 g/ha: 250 g ai/ha, read-out: Morningglory, Ivy-leaved damage rating (100=total damage to plant; 0=no damage to plant)
How it was run: as §2

[10] = tested on: barnyardgrass (Echinochloa crus-galli); assay: Test G Pre-Emergence Protocol; settings: Echinochloa crus-galli, pre-emergence, 312 h, evaluated after 13 days; for pest or weed control at 15.625 g/ha: 15.625 g ai/ha, read-out: Barnyard grass damage rating (100=total damage to plant; 0=no damage to plant); for pest or weed control at 62.5 g/ha: 62.5 g ai/ha, 100=total damage to plant, 0=no damage to plant, read-out: plant damage rating, Barnyardgrass; for pest or weed control at 250 g/ha: 250 g ai/ha, read-out: Barnyardgrass damage rating (100=total damage to plant; 0=no damage to plant)
How it was run: as §2

[11] = tested on: redroot pigweed (Amaranthus retroflexus); assay: Test G Pre-Emergence Protocol; settings: Amaranthus retroflexus, pre-emergence, 312 h, evaluated after 13 days; for pest or weed control at 15.625 g/ha: 15.625 g ai/ha; for pest or weed control at 15.625 g/ha / pest or weed control at 250 g/ha: read-out: Pigweed, Redroot damage rating (100=total damage to plant; 0=no damage to plant); for pest or weed control at 62.5 g/ha: 62.5 g ai/ha, 100=total damage to plant, 0=no damage to plant, read-out: plant damage rating, Pigweed, Redroot; for pest or weed control at 250 g/ha: 250 g ai/ha
How it was run: as §2

[12] = tested on: velvetleaf (Abutilon theophrasti); assay: Test G Pre-Emergence Protocol; settings: Abutilon theophrasti, pre-emergence, 312 h, evaluated after 13 days; for pest or weed control at 15.625 g/ha: 15.625 g ai/ha; for pest or weed control at 15.625 g/ha / pest or weed control at 250 g/ha: read-out: Velvetleaf damage rating (100=total damage to plant; 0=no damage to plant); for pest or weed control at 62.5 g/ha: 62.5 g ai/ha, 100=total damage to plant, 0=no damage to plant, read-out: plant damage rating, Velvetleaf; for pest or weed control at 250 g/ha: 250 g ai/ha
How it was run: as §2

Row | Structure (SMILES) | plant injury at 15.625 g/ha [1] [%] | plant injury at 62.5 g/ha [1] [%] | plant injury at 250 g/ha [1] [%] | pest or weed control at 15.625 g/ha [2] [%] | pest or weed control at 62.5 g/ha [2] [%] | pest or weed control at 250 g/ha [2] [%] | pest or weed control at 15.625 g/ha [3] [%] | pest or weed control at 62.5 g/ha [3] [%] | pest or weed control at 250 g/ha [3] [%] | pest or weed control at 15.625 g/ha [4] [%] | pest or weed control at 62.5 g/ha [4] [%] | pest or weed control at 250 g/ha [4] [%] | pest or weed control at 15.625 g/ha [5] [%] | pest or weed control at 62.5 g/ha [5] [%] | pest or weed control at 250 g/ha [5] [%] | pest or weed control at 15.625 g/ha [6] [%] | pest or weed control at 62.5 g/ha [6] [%] | pest or weed control at 250 g/ha [6] [%] | plant injury at 15.625 g/ha [7] [%] | plant injury at 62.5 g/ha [7] [%] | further results
1 | Cc1ccc(NC(=O)[C@@H]2C(=O)N(C)C[C@H]2c2ccc(C(F)(F)F)cc2)c(F)c1 (racemic) [Compound 1591] | 0 | 0 | 10 | 0 | 70 | 80 | 0 | 10 | 10 | 0 | 30 | 50 | 0 | 10 | 10 | 0 | 0 | 10 | 0 | 10 | plant injury at 250 g/ha [7]: 0%; pest or weed control at 15.625 g/ha [8]: 0%; pest or weed control at 62.5 g/ha [8]: 70%; pest or weed control at 250 g/ha [8]: 80%; pest or weed control at 15.625 g/ha [9]: 0%; pest or weed control at 62.5 g/ha [9]: 0%; pest or weed control at 250 g/ha [9]: 0%; pest or weed control at 15.625 g/ha [10]: 0%; pest or weed control at 62.5 g/ha [10]: 50%; pest or weed control at 250 g/ha [10]: 70%; pest or weed control at 15.625 g/ha [11]: 0%; pest or weed control at 62.5 g/ha [11]: 0%; pest or weed control at 250 g/ha [11]: 0%; pest or weed control at 15.625 g/ha [12]: 0%; pest or weed control at 62.5 g/ha [12]: 0%; pest or weed control at 250 g/ha [12]: 10%
2 | Cc1cc(NC(=O)[C@@H]2C(=O)N(C)C[C@H]2c2ccc(C(F)(F)F)cc2)ccn1 (racemic) [Compound 1600] | 0 | 0 | 0 | 0 | 0 | 0 | 0 | 0 | 0 | 0 | 0 | 0 | 0 | 0 | 0 | 0 | 0 | 0 | 0 | 0 | plant injury at 250 g/ha [7]: 0%; pest or weed control at 15.625 g/ha [8]: 0%; pest or weed control at 62.5 g/ha [8]: 0%; pest or weed control at 250 g/ha [8]: 0%; pest or weed control at 15.625 g/ha [9]: 0%; pest or weed control at 62.5 g/ha [9]: 0%; pest or weed control at 250 g/ha [9]: 0%; pest or weed control at 15.625 g/ha [10]: 0%; pest or weed control at 62.5 g/ha [10]: 0%; pest or weed control at 250 g/ha [10]: 0%; pest or weed control at 15.625 g/ha [11]: 0%; pest or weed control at 62.5 g/ha [11]: 0%; pest or weed control at 250 g/ha [11]: 0%; pest or weed control at 15.625 g/ha [12]: 0%; pest or weed control at 62.5 g/ha [12]: 0%; pest or weed control at 250 g/ha [12]: 0%
